Assay results published in PubChem BioAssay AID1963429 (Molecular Pharmacology Branch, DTP, NCI, 2024).

System: 126254-015-R-J1-PDC complex spheroid growth, % test/control
Assay: Anticancer human tumor 126254-015-R-J1-PDC patient-derived soft tissue sarcoma cell line growth inhibition [Asc]
Details: for IC50: curve of first compound; for viability, T/C: stronger effect = lower value
Procedure, shortened: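 Tumor cells were grown as multicellular spheroids with stromal HUVEC and mesenchymal stem cells and treated singly or in combination. Concentrations fell in half-log steps from the clinical Cmax, or from 10 microM where none was known.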

[1] = second compound 0.1 µM, first compound 0.0316 µM
[2] = second compound 0.1 µM, first compound 0.1 µM
[3] = second compound 0.1 µM, first compound 0.316 µM
[4] = second compound 0.1 µM, first compound 1 µM
[5] = second compound 0.316 µM, first compound 0.0316 µM
[6] = second compound 0.316 µM, first compound 0.1 µM
[7] = second compound 0.316 µM, first compound 0.316 µM
[8] = second compound 0.316 µM, first compound 1 µM
[9] = second compound 1 µM, first compound 0.0316 µM
[10] = second compound 1 µM, first compound 0.1 µM
[11] = second compound 1 µM, first compound 0.316 µM
[12] = second compound 1 µM, first compound 1 µM
[13] = second compound 3.16 µM, first compound 0.0316 µM
[14] = second compound 3.16 µM, first compound 0.1 µM
[15] = second compound 3.16 µM, first compound 0.316 µM
[16] = second compound 3.16 µM, first compound 1 µM
[17] = second compound 10 µM, first compound 0.0316 µM
[18] = second compound 10 µM, first compound 0.1 µM
[19] = second compound 10 µM, first compound 0.316 µM
[20] = second compound 10 µM, first compound 1 µM
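Further: spheroids exposed to compound for seven days.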
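Wherever viability, T/C is given: 100% = DMSO vehicle control wells.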

SMILES | IC50 (second compound 0.1 µM) [µM] | IC50 (second compound 0.316 µM) [µM] | IC50 (second compound 1 µM) [µM] | IC50 (second compound 3.16 µM) [µM] | IC50 (second compound 10 µM) [µM] | viability, T/C [1] [%] | viability, T/C [2] [%] | viability, T/C [3] [%] | viability, T/C [4] [%] | viability, T/C [5] [%] | viability, T/C [6] [%] | viability, T/C [7] [%] | viability, T/C [8] [%] | viability, T/C [9] [%] | viability, T/C [10] [%] | viability, T/C [11] [%] | viability, T/C [12] [%] | viability, T/C [13] [%] | viability, T/C [14] [%] | viability, T/C [15] [%] | further results
C#Cc1c(F)ccc2cc(O)cc(-c3ncc4c(N5CC6CCC(C5)N6)nc(OCC56CCCN5CC(F)C6)nc4c3F)c12 (stereo not given) + Cc1c(S(C)(=O)=O)c(-c2cc(F)cc(N3CCN(c4ccc(NS(=O)(=O)c5ccc(NC(CCN6CCC(C(=O)OCCCP(=O)(O)O)CC6)CSc6ccccc6)c(S(=O)(=O)C(F)(F)F)c5)cc4)CC3)c2)c(-c2ccc(Cl)cc2)n1C(C)C | > 10 | > 10 | 6.58 | 7.17 | 9.19 | 85.4 | 92.8 | 90.4 | 80.9 | 88.5 | 86 | 80.9 | 79.2 | 84 | 92.2 | 73.8 | 81.9 | 82.6 | 90.8 | 83.4 | viability, T/C (second compound 0.1 µM, first compound 3.16 µM): 72.4%; viability, T/C (second compound 0.1 µM, first compound 10 µM): 59.9%; viability, T/C (second compound 0.316 µM, first compound 3.16 µM): 72.4%; viability, T/C (second compound 0.316 µM, first compound 10 µM): 54.5%; viability, T/C (second compound 1 µM, first compound 3.16 µM): 72.3%; viability, T/C (second compound 1 µM, first compound 10 µM): 37.4%; viability, T/C [16]: 79.5%; viability, T/C (second compound 3.16 µM, first compound 3.16 µM): 65.8%; viability, T/C (second compound 3.16 µM, first compound 10 µM): 43.6%; viability, T/C [17]: 87.1%; viability, T/C [18]: 88.4%; viability, T/C [19]: 81.2%; viability, T/C [20]: 75.5%; viability, T/C (second compound 10 µM, first compound 3.16 µM): 75%; viability, T/C (second compound 10 µM, first compound 10 µM): 47.8%
CCN1CCN(Cc2ccc(Nc3ncc(F)c(-c4cc(F)c5nc(C)n(C(C)C)c5c4)n3)nc2)CC1 + Cc1c(S(C)(=O)=O)c(-c2cc(F)cc(N3CCN(c4ccc(NS(=O)(=O)c5ccc(NC(CCN6CCC(C(=O)OCCCP(=O)(O)O)CC6)CSc6ccccc6)c(S(=O)(=O)C(F)(F)F)c5)cc4)CC3)c2)c(-c2ccc(Cl)cc2)n1C(C)C | > 1 | > 1 | > 1 | > 1 | > 1 | 88.4 | 90.1 | 110 | 98.4 | 84.4 | 95.5 | 90.3 | 87 | 93.3 | 86.4 | 97.9 | 73.3 | 90.1 | 72.4 | 86.6 | viability, T/C (second compound 0.1 µM, first compound 0.00316 µM): 99.3%; viability, T/C (second compound 0.1 µM, first compound 0.01 µM): 95.5%; viability, T/C (second compound 0.316 µM, first compound 0.00316 µM): 87.8%; viability, T/C (second compound 0.316 µM, first compound 0.01 µM): 89.1%; viability, T/C (second compound 1 µM, first compound 0.00316 µM): 86.5%; viability, T/C (second compound 1 µM, first compound 0.01 µM): 81.7%; viability, T/C (second compound 3.16 µM, first compound 0.00316 µM): 96.6%; viability, T/C (second compound 3.16 µM, first compound 0.01 µM): 87.7%; viability, T/C [16]: 87.3%; viability, T/C (second compound 10 µM, first compound 0.00316 µM): 86.5%; viability, T/C (second compound 10 µM, first compound 0.01 µM): 90.4%; viability, T/C [17]: 86.1%; viability, T/C [18]: 98%; viability, T/C [19]: 87.5%; viability, T/C [20]: 73.8%
